Experimental data taken from ChEMBL document CHEMBL1201862, “PubChem BioAssay data set” (2004).
The source made the active and inactive calls.

How the values were obtained:
[1] = HEK-293T cell viability reduction – luminescence, B-cell screen hits, cytotoxicity control for BCR NF-kB inhibitor project, dose response (AID 489021); format: functional, cell-based;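 also: HEK-293T cells carrying an NF-kB luciferase reporter; cells exposed to compound for about 14 hours before viability readout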
[2] = blockers of bursicon-stimulated LGR2 cAMP reporter – cell-based, HEK293, CRE-luciferase reporter, cherry pick, set 2, dose response (AID 743343); format: functional;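 also: transfected cells were stimulated with diluted bursicon conditioned medium after compound addition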
Melanocortin receptor 4 = Melanocortin receptor 4 (Homo sapiens, UniProt P32245); experiment: inhibitors of MC4R cAMP signaling – cell-based, TR-FRET, biased antagonists, dose response (AID 602298); format: functional;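 also: antagonist potency against agonist-stimulated cAMP production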
Sequence of Melanocortin receptor 4 (P32245 whole entry): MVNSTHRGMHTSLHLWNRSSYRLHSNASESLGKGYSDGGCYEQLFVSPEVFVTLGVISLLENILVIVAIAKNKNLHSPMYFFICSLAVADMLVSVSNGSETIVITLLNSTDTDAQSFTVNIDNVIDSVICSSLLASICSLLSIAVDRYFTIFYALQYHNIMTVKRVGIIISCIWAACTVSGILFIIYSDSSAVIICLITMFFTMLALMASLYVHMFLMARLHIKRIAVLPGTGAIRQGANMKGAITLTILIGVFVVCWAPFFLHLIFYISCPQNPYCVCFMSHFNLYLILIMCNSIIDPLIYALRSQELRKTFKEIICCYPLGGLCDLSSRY

[3] = viability loss in HEK293 cells – cell-based, plate reader, cherry-picked samples, cytotoxicity control, dose response (AID 743446); format: functional
[4] = loss of viability in HepG2 cells – cell-based, CellTiter-Glo, cherry-picked, cytotoxicity control for Shn3 inhibitor project, dose response (AID 624134); format: functional
[5] = viability of PTEN-deleted HCT116 cells – cell-based, HCT116 PTEN knockout, dose response (AID 1047); format: functional;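 also: HCT116 colon tumor cells with PTEN knocked out; cells exposed to compound for 60 hours before readout; potency for loss of cell viability measured by luminescence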
[6] = cAMP pathway inhibition in counterscreen cell line – TR-FRET cAMP detection, counter-screen for MC4R biased antagonist project, dose response (AID 602305); format: functional, cell-based;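 also: U2OS cells stimulated with forskolin near its EC80 as the cAMP inducer; potency is for inhibition of forskolin-stimulated cAMP signaling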
[7] = non-specific 3'UTR reporter inhibition in Clone20-Shn3RL – cell-based, Renilla luciferase, cherry-picked, counter-screen for Shn3 inhibitor project, dose response (AID 624133); format: functional
[8] = microbe, parasite or virus in culture; format: functional; settings: Mycobacterium tuberculosis
[9] = blockade of melanocortin 4 receptor signaling – cell-based, plate reader, cherry pick, counter-screen for LGR2 antagonist project, dose response (AID 743444); format: functional;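 also: transfected HEK 293 cells stimulated with alpha-MSH peptide; potency of inhibitors of the alpha-MSH evoked signal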
[10] = A549 cell cytotoxicity, dose response, cytotoxicity control, plate reader, cherry-pick, antagonist series (AID 743412); format: functional, cell-based
[11] = viability of HCT116 lacking mutant beta-catenin – cell-based, human colon tumor, dose response (AID 1045); format: functional;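 also: HCT116 colon tumor cells with beta catenin knocked out; cells exposed to compound for 60 hours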
[12] = toxicity toward HepG2 liver cells – cell-based, plate reader, cherry-pick, antagonist series, cytotoxicity control, dose response (AID 743416); format: functional
[13] = reduction of Shn3 3'UTR-driven luciferase in osteoblasts – cell-based, Clone20 osteoblasts, firefly luciferase, cherry-picked, dose response (AID 624132); format: functional;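 also: firefly luciferase luminescence from reporter carrying the Shn3 3'UTR in osteoblasts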
[14] = target: Cyclin-dependent kinase 19 (Homo sapiens, UniProt Q9BWU1); experiment: Navigating the Kinome. Panel member name: CDC2L6; format: functional
Sequence of Cyclin-dependent kinase 19 (Q9BWU1 whole entry): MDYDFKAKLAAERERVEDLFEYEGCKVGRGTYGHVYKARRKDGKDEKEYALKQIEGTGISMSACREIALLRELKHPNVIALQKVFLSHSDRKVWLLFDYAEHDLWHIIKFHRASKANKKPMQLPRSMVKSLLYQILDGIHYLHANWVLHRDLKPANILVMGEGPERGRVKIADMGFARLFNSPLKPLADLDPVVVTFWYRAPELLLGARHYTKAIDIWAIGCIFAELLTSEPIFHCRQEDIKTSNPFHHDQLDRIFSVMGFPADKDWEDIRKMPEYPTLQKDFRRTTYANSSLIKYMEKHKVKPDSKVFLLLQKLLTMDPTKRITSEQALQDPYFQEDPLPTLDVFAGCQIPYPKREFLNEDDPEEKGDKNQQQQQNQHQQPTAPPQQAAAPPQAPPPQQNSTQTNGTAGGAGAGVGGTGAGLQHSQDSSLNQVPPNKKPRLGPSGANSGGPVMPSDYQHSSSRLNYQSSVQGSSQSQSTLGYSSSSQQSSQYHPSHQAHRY

Aurora kinase A = Aurora kinase A (Homo sapiens, UniProt O14965); format: functional;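 also: value from the Navigating the Kinome kinase panel profiling, panel entry STK6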
Sequence of Aurora kinase A (O14965 whole entry): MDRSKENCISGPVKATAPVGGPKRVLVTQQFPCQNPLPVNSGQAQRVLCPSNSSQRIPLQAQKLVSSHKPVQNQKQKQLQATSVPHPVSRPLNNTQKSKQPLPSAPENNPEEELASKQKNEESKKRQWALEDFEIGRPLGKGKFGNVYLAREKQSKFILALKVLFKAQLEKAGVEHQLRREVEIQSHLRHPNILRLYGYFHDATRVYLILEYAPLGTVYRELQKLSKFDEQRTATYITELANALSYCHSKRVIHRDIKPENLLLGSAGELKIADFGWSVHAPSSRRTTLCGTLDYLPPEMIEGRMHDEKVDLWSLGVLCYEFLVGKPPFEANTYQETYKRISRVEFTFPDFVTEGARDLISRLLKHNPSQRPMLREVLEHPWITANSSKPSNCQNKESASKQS

Aurora kinase B = Aurora kinase B (Homo sapiens, UniProt Q96GD4); format: functional
[15] = target: T1, High affinity choline transporter 1 (Homo sapiens, UniProt Q9GZV3); experiment: human choline transporter blockers, potency – cell-based, 10-point CRC, membrane potential dye, dose response (AID 588401); format: functional;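 also: membrane potential dye fluorescence of choline-evoked depolarization via CHT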
T1 sequence (Q9GZV3 whole entry): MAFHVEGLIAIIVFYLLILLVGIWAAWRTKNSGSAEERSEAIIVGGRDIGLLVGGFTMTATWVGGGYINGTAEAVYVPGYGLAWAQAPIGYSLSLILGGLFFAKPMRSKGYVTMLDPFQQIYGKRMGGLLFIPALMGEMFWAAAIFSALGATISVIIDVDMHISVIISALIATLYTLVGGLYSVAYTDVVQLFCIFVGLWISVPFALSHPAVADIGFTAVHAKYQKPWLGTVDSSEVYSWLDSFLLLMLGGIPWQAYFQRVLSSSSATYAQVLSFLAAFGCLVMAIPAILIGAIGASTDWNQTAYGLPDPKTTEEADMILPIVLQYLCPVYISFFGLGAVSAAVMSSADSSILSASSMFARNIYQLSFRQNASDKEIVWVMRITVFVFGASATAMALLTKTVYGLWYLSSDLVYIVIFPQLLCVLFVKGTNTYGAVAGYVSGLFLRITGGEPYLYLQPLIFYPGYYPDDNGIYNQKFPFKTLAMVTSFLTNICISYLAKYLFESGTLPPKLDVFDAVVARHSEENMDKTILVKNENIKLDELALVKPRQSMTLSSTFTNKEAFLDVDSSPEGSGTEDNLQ

[16] = target: T1, High affinity choline transporter 1; experiment: human choline transporter blockers, potency – cell-based, 5-point CRC, membrane potential dye, dose response (AID 504840); format: functional
SRSF protein kinase 1 = SRSF protein kinase 1 (Homo sapiens, UniProt Q96SB4); format: functional;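 also: measured as one member of a kinome-wide kinase profiling panel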
[17] = target: Serine/threonine-protein kinase PAK 1 (Homo sapiens, UniProt Q13153); format: functional
[18] = target: Interleukin-1 receptor-associated kinase 4 (Homo sapiens, UniProt Q9NWZ3); format: functional
Sequence of Interleukin-1 receptor-associated kinase 4 (Q9NWZ3 whole entry): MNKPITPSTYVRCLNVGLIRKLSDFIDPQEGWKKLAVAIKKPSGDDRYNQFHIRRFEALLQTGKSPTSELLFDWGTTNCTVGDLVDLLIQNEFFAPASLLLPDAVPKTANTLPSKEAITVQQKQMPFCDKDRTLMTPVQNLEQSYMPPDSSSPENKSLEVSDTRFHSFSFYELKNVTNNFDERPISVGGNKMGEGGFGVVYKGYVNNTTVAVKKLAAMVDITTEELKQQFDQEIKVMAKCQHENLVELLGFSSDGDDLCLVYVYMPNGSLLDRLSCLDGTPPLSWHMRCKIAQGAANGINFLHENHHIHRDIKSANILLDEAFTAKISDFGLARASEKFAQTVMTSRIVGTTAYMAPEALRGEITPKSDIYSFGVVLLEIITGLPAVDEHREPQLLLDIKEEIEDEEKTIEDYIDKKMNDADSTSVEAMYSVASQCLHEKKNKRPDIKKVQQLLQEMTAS

[19] = target: Melanin-concentrating hormone receptor 1 (Homo sapiens, UniProt Q99705); experiment: Late-stage fluorescence-based counterscreen for antagonists of the G-protein coupled receptor 7 (GPR7): cell-based dose response assay to identify antagonists of the melanin-concentrating hormone receptor 1 (MCHR1) Set 5.; format: functional
[20] = target: T2, Neuropeptides B/W receptor type 1 (Homo sapiens, UniProt P48145); experiment: human NPBW1 receptor blockade, IC50 – cell-based, fluorescence, dose response, set 5, late-stage follow-up (AID 588566); format: functional
T2 sequence (P48145 whole entry): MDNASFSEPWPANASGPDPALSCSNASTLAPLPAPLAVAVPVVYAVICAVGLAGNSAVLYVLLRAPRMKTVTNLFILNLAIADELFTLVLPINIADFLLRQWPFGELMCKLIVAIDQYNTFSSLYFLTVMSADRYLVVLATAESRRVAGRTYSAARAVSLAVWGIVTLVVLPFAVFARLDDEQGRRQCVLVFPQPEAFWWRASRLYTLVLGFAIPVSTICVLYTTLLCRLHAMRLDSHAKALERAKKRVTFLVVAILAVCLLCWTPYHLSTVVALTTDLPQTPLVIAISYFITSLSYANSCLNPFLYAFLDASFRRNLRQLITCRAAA

[21] = target: T3, Apoptotic protease-activating factor 1 (Homo sapiens, UniProt O14727); experiment: SAR analysis of small molecule Activators of Apaf-1 in a Fluorescent assay - set 2.; format: functional; settings: read-out: EC50_Mean
T3 sequence (O14727 whole entry): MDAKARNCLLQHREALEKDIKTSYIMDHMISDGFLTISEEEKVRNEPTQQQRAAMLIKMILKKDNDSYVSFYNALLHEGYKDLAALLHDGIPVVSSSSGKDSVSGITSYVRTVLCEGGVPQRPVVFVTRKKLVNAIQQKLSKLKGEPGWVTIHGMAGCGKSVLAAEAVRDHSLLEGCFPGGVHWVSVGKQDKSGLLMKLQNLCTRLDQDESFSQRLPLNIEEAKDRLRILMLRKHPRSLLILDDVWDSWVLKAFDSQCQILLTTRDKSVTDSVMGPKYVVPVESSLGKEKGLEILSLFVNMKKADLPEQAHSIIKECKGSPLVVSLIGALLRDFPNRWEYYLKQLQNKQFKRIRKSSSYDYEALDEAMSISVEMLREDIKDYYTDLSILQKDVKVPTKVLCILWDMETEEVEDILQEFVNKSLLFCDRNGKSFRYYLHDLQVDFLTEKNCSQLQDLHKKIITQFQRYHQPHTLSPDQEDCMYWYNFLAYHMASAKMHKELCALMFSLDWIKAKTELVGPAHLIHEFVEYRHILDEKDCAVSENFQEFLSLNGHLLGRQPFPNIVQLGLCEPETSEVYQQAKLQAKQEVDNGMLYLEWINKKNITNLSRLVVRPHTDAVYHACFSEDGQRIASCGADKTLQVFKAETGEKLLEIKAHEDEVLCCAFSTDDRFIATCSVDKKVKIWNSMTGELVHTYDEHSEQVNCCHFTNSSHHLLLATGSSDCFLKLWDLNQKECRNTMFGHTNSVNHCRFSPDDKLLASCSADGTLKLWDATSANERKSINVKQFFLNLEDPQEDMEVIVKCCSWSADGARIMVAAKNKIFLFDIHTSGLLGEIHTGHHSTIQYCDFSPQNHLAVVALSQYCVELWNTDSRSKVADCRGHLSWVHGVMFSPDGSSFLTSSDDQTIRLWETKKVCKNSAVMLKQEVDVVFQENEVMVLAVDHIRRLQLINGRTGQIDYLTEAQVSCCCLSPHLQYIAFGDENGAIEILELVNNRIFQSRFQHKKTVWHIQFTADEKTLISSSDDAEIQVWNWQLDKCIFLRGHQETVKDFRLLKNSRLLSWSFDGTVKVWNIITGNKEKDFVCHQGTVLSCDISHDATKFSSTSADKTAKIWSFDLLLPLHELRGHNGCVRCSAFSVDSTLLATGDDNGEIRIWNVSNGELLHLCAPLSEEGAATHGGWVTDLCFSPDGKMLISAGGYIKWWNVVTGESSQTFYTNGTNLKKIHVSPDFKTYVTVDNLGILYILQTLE

[22] = SAR analysis of small molecule activators of Apaf-1 using a LZ-Caspase-9/Caspase-3 Fluorescent Selectivity assay - Set 2.; format: functional; settings: read-out: EC50_Mean
[23] = target: T4, DNA dC->dU-editing enzyme APOBEC-3G (Homo sapiens, UniProt Q9HC16); format: functional
T4 sequence (Q9HC16 whole entry): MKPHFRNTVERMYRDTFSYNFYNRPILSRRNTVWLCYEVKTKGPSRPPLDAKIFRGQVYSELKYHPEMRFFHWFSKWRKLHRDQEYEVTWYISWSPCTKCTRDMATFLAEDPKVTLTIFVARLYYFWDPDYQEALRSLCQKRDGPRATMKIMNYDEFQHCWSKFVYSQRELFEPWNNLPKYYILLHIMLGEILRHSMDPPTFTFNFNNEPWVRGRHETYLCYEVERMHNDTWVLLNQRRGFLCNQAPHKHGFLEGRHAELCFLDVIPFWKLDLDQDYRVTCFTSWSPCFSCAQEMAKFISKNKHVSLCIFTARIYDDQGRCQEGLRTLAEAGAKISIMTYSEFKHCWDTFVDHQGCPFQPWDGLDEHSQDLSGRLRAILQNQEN

[24] = target: T5, DNA dC->dU-editing enzyme APOBEC-3A (Homo sapiens, UniProt P31941); experiment: Dose Response confirmation of small molecule APOBEC3A DNA Deaminase Inhibitors via a fluorescence-based single-stranded DNA deaminase assay. [Related pubchem assays (depositor defined):AID493011, AID493024]; format: functional
T5 sequence (P31941 whole entry): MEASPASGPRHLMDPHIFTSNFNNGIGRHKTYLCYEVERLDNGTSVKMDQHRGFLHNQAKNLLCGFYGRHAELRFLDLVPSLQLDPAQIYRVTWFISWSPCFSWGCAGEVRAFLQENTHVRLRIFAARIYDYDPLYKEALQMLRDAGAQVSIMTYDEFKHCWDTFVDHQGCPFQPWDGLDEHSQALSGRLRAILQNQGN

[25] = target: T5, DNA dC->dU-editing enzyme APOBEC-3A; experiment: SAR analysis of small molecule inhibitors of APOBEC3A DNA Deaminase via a fluorescence-based single-stranded DNA deaminase assay - Set 2.; format: functional; settings: read-out: IC50_Mean
[26] = target: T4, DNA dC->dU-editing enzyme APOBEC-3G; experiment: SAR analysis of small molecule inhibitors of APOBEC3G DNA Deaminase via a fluorescence-based single-stranded DNA deaminase assay - Set 2.; format: functional; settings: read-out: IC50_Mean
[27] = target: T4, DNA dC->dU-editing enzyme APOBEC-3G; experiment: inhibition of APOBEC3G ssDNA deamination – biochemical, fluorescence, single-stranded DNA substrate, SAR follow-up (AID 602136); format: functional; settings: read-out: IC50_Mean
[28] = target: T5, DNA dC->dU-editing enzyme APOBEC-3A; experiment: SAR analysis of small molecule inhibitors of APOBEC3A DNA Deaminase via a fluorescence-based single-stranded DNA deaminase assay.; format: functional; settings: read-out: IC50_Mean
[29] = target: Multidrug resistance protein CDR2 (Candida albicans (strain SC5314 / ATCC MYA-2876) (Yeast), UniProt P78595); experiment: inhibition of Nile Red efflux via Candida CDR2 – S. cerevisiae AD1-8u, singleplex, Cherry Pick1 hits, dose response (AID 588604); format: functional
Sequence of Multidrug resistance protein CDR2 (P78595 whole entry): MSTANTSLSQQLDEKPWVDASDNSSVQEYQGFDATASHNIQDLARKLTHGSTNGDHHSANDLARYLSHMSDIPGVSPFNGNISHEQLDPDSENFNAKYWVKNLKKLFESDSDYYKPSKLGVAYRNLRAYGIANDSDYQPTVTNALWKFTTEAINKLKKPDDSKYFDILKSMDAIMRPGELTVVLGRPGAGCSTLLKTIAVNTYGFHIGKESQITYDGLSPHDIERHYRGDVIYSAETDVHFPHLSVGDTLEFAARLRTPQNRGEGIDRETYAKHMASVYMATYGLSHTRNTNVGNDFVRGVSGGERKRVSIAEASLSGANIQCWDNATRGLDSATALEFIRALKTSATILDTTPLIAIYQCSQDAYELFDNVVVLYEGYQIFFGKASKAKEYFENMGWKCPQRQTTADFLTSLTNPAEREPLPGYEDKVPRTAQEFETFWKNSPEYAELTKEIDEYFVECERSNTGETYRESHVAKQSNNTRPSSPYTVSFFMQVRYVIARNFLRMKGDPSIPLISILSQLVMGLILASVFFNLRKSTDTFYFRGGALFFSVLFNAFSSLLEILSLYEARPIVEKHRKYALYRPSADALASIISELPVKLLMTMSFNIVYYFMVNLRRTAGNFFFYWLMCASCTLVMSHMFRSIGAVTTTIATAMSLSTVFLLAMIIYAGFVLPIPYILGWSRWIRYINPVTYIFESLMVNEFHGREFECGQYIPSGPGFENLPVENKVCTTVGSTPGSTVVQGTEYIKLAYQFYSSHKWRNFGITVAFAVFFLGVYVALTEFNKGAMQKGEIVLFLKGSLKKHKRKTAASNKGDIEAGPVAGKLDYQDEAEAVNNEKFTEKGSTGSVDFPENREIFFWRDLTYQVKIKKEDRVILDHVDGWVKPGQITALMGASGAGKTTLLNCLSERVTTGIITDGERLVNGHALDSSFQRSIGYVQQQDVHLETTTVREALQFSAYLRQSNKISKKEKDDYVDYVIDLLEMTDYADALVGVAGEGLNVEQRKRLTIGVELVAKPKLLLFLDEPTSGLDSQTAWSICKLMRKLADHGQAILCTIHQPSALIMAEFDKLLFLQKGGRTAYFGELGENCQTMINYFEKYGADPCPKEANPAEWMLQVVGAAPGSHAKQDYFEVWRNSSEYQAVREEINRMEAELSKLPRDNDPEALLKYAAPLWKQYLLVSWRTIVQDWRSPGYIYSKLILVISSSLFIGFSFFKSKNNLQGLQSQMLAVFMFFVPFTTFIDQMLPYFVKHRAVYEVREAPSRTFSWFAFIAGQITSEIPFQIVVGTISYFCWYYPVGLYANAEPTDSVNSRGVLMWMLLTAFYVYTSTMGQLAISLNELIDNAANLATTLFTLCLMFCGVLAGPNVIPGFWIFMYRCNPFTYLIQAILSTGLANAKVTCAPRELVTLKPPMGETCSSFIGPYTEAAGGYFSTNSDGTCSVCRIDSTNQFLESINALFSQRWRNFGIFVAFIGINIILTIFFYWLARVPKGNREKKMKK

[30] = target: Dual specificity protein kinase CLK4 (Homo sapiens, UniProt Q9HAZ1); format: functional
Sequence of Dual specificity protein kinase CLK4 (Q9HAZ1 whole entry): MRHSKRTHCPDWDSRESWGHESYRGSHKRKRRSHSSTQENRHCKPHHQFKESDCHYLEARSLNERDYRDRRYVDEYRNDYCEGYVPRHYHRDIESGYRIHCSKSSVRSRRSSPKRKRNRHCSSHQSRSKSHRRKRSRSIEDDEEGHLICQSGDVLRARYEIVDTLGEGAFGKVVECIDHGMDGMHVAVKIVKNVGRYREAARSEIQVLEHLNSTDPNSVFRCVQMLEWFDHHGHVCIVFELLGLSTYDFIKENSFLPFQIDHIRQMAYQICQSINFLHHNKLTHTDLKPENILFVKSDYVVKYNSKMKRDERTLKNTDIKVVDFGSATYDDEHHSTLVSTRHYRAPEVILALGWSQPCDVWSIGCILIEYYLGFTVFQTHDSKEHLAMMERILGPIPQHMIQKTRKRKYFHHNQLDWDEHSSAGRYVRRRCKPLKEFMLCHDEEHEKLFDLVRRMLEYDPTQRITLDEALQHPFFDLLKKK

[31] = target: Dual specificity tyrosine-phosphorylation-regulated kinase 1B (Homo sapiens, UniProt Q9Y463); experiment: Navigating the Kinome. Panel member name: DYRK1B; format: functional
Sequence of Dual specificity tyrosine-phosphorylation-regulated kinase 1B (Q9Y463 whole entry): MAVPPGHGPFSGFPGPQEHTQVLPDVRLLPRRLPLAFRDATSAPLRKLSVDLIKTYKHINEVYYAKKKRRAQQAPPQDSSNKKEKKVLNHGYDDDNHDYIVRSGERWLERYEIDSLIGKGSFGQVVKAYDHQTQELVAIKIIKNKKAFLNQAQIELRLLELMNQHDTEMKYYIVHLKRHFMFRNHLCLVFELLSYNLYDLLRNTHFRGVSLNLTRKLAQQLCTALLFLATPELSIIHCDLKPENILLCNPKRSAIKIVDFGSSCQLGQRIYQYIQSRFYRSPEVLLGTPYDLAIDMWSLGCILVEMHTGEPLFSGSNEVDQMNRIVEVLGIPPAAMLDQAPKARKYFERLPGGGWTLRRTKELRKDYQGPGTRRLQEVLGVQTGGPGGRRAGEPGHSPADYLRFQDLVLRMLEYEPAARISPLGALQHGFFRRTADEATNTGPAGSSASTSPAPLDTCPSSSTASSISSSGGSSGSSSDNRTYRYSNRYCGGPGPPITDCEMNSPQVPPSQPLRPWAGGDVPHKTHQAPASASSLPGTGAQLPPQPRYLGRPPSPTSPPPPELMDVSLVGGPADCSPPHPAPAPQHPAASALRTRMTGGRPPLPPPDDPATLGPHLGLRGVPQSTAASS

[32] = target: Dual specificity tyrosine-phosphorylation-regulated kinase 1A (Homo sapiens, UniProt Q13627); format: functional;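 also: measured against DYRK1A as one member of a broad kinome profiling panel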
[33] = target: Mitogen-activated protein kinase 8 (Homo sapiens, UniProt P45983); format: functional;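 also: value comes from one member of a kinome-wide kinase profiling panel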

Compound: COc1ccc(-n2nnnc2S(=O)(=O)CC(=O)N2CCCCC2)cc1
- IC50 [1]: > 80 µM (inactive)
- AC50 [2]: 7.53 µM (active)
- IC50 (Melanocortin receptor 4): > 64.5 µM (inactive)
- AC50 [3]: 13.6 µM (active)
- AC50 [4]: 16.8 µM (active)
- EC50 [5]: 10.6 µM (active)
- IC50 [6]: > 64.5 µM (inactive)
- AC50 [7]: 3.45 µM (active)
- CC50 [8]: 11.3 µM (active)
- AC50 [9]: 7.63 µM (active)
- AC50 [10]: 13 µM (active)
- EC50 [11]: 10.9 µM (active)
- AC50 [12]: 8.89 µM (active)
- AC50 [13]: 5.44 µM (active)

Compound: Cc1oc2ncnc(N)c2c1-c1ccc(NC(=O)Nc2cccc(C(F)(F)F)c2)cc1
- Ki [14]: 3.98 µM (active)
- Ki (Aurora kinase A): 79.4 nM (active)
- Ki (Aurora kinase B): 12.6 nM (active)

Compound: CCOC(=O)c1cc(C(=O)NC(C)c2ccccc2)c(C)nc1O (configuration not stated)
- IC50 [15]: 447 nM (active)
- IC50 [16]: 1.77 µM (active)

Compound: Cc1ccc(C2(c3ccc(C)cc3)CC2C(=O)Nc2ccncc2)cc1 (configuration not stated)
- Ki (SRSF protein kinase 1): 2.51 µM (active)
- Ki [17]: > 10 µM (inactive)
- Ki [18]: > 10 µM (inactive)

Compound: Cc1cccc(C(C#N)c2c(Cl)cnn(Cc3cccc4ccccc34)c2=O)c1 (configuration not stated)
- IC50 [19]: 18.8 µM (inactive)
- IC50 [20]: 379 nM (active)

Compound: CC(Cn1cnc2ccccc21)C(=O)O (configuration not stated)
- EC50 [21]: 83.2 µM (active)
- EC50 [22]: > 100 µM (inactive)

Compound: C[n+]1cccc(C(=O)Nc2ccccc2)c1
- IC50 [23]: 6.95 µM (active)
- IC50 [24]: 2.75 µM (active)
- IC50 [25]: 28.6 µM (inactive)
- IC50 [26]: 1.1 µM (active)
- IC50 [27]: 5.96 µM (active)
- IC50 [28]: 12.8 µM (inactive)

Compound: COc1cccc(-c2sc3ccc(OC)cc3c2-c2ccc(OCCN3CCCCC3)cc2)c1
- EC50 [29]: 11.2 µM (active)

Compound: O=c1[nH]ccc2cnc(-c3ccccc3)n12
- Ki [30]: 39.8 µM (active)
- Ki [31]: 79.4 µM (active)
- Ki [32]: 63.1 µM (active)
- Ki [33]: 25.1 µM (active)
